Experiments:
Assay type in all cases: physicochemical
[1] = Particle size distribution measurement by laser diffraction; details: sieved below 63 μm, n = 3; for Span: (D90-D10)/D50
Method: The particle size and size distribution of the powders was determined using laser diffraction equipment, Mastersizer 3000 (Malvern Instruments Ltd, Worcestershire, UK) with Aero S dry powder disperser. […] The particle size distribution was calculated from the light scattering pattern using Mie theory. Particle size at 10% (D10), 50% (D50), 90% (D90) of the volume distribution were calculated automatically using the Mastersizer 3000 software […]. Span was calculated as (D90-D10)/D50. All the samples were measured in triplicate.

[2] = Stability study: drug assay by HPLC and PXRD before and after storage at 25° C./75% RH; details: storage 25° C./75% RH; for % Difference (Day 0-Day 30): Day 0 vs Day 30
Method: (§1) The mobile phase consisted of a mixture of methanol and water (65:35, v/v). A 30 μL aliquot of each sample solution was injected onto the column with a flow rate of 1 mL/min.
The samples before and after the storage were collected for PXRD analysis.

[3] = In-vitro drug release study for nasal delivery in pH 5.5 simulated nasal fluid; details: for IDR ratio of DEX cocrystals to DEX: pH 5.5 SNF, estimated by ratio of the slope with sphere assumption; for release in SNF relative to raw DEX (fold faster) / dissolution relative to raw DEX (fold faster): pH 5.5 simulated nasal fluid; for release in SNF relative to raw DEX (fold faster): at 120 min, particle size below 63 μm; for dissolution relative to raw DEX (fold faster): time point not stated
Method: as §1
The solution was stirred at 50 rpm on a magnetic stirrer. The dissolution medium and temperature were selected to mimic the physiological condition in the nasal cavity^35, 36. At designated times of 5, 10, 15, 20, 30, 45, 60, 90, and 120 min, 1 mL of the dissolution medium was withdrawn and replaced with an equal volume of fresh medium. The sample solution was filtered through 0.45 μm nylon syringe filters and assayed for drug content by HPLC. The intrinsic dissolution rate (IDR) is determined by the following equation: IDR=(dm/dt)max/A, where (dm/dt)max is the slope of the initial linear region of the cumulative dissolution curve until 10% of drug is dissolved, and A is the specific surface area of the dissolution sample. The following assumptions were made: (i) spherical particles, (ii) constant particle size, and (iii) constant number of particles during the initial phase of the dissolution experiment under sink condition. With the assumptions, the particle size distribution data collected by laser diffractometry is used for the particle surface area (SAparticle) calculation. The total number of particles (n) subject to dissolution is calculated by Vbulk/Vparticle, where Vparticle is the volume of each primary particle, and Vbulk is the volume of compound added to the dissolution medium. The total surface area of all particles added to the dissolution medium is thus calculated through nSAparticle. Finally, the specific surface area (A, m^2/g) defined as the total surface area of a material per unit of mass could be obtained.

[4] = In-vitro aerosol performance evaluation with Next Generation Impactor; details: NGI; for FPF: 90 L/min, particles <5 μm vs recovered dose
Method: The spray dryer is equipped with a Buchi B-296 Dehumidifier and B-295 Inert Loop and a spray nozzle tip diameter of 0.7 mm with nitrogen as the atomization gas. The formulations were prepared according to the processing parameters listed in Table 6, above, with a rate of aspirations fixed at 100% (approximately 35 m^3/h), resulting in an outlet temperature of about 44° C.
A thin layer of silicon grease (Slipicone; DC Products, Waverley, VIC, Australia) coated onto the impactor stages minimizes particle bounce. […] Precise amounts of methanol were used for rinsing DEX and RES in all stages. The solutions were subsequently filtered using a 0.45 μm nylon syringe filters and the solutions assayed by HPLC. The recovered dose, fine particle fraction (FPF), mass median aerodynamic diameter (MMAD), and geometric standard deviation (GSD) were calculated. The FPF is the mass fraction of the particles <5 μm with respect to the recovered dose. The recovered dose was defined as the sum of powder mass assayed on all the parts.

[5] = spray-dried 1:1 from methanol, flow rate 90 L/min

SMILES | Volumetric size D10 [1] [μm] | Volumetric size D50 [1] [μm] | Span [1] | % of DEX Remaining (n = 3) ([2]; Day 0) [%] | % Difference (Day 0-Day 30) [2] [%] | % of DEX Remaining (n = 3) ([2]; Day 7) [%] | % of DEX Remaining (n = 3) ([2]; Day 30) [%] | Volumetric size D90 [1] [μm] | IDR ratio of DEX cocrystals to DEX [3] | release in SNF relative to raw DEX (fold faster) [3] [fold] | dissolution relative to raw DEX (fold faster) [3] [fold] | FPF ([4]; spray-dried 1:1 from methanol) [% w/w] | FPF ([4]; spray-dried 1:1 from methanol, listed as spray dried cocrystal formulation) [% w/w] | GSD [4, 5] [μm] | MMAD [4, 5] [μm] | MMAD ([4]; spray-dried 1:1 from methanol, flow rate 90 L/min, listed as spray dried cocrystal formulation) [μm] | aerosolized powders deposited on stages 3-6 ([4]; spray-dried, aerodynamic diameters 3.61 to 0.76 μm) [%]
C[C@@H]1C[C@H]2[C@@H]3CCC4=CC(=O)C=C[C@]4(C)[C@@]3(F)[C@@H](O)C[C@]2(C)[C@@]1(O)C(=O)CO [DEX, 9-fluoro-11β,17,21-trihydroxy-16α-methylpregna-1,4-diene-3,20-dione, reference compound] | 0.93 ± 0.16 | 1.52 ± 0.50 | 3.15 ± 0.46 | 98.77 ± 2.97 | 4.27 ± 5.14 | 97.23 ± 4.27 | 94.50 ± 3.00 |  |  |  |  |  |  |  |  |  | 
CC1CC2C3CCC4=CC(=O)C=CC4(C)C3(F)C(O)CC2(C)C1(O)C(=O)CO.Oc1ccccc1O (centres unmarked) [DEX-CAT] | 8.49 ± 1.76 | 24.87 ± 6.75 | 5.14 ± 0.28 | 97.83 ± 2.32 | 2.38 ± 5.49 | 96.73 ± 4.72 | 95.45 ± 3.35 | 49.27 ± 6.42 | 76.86 | 2.4 | 3 |  |  |  |  |  | 
CC1CC2C3CCC4=CC(=O)C=CC4(C)C3(F)C(O)CC2(C)C1(O)C(=O)CO.Oc1cccc(O)c1 (centres unmarked) [DEX-RES] | 4.46 ± 1.93 | 12.0 ± 0.42 | 7.69 ± 0.93 | 99.65 ± 2.58 | 4.50 ± 4.07 | 97.18 ± 3.87 | 95.15 ± 3.17 | 35.03 ± 8.92 | 48.29 | 2.4 | 3 | 35.43 | 35.43±4.97 | 2.30 | 2.96 | 2.96±0.49 | 30.26

Source: patent publication US20230382944A1, “NOVEL COCRYSTALS OF DEXAMETHASONE” (Versitech Limited, priority 2022, published 2023)
